IC50 data for three compounds are collected here from ChEMBL document CHEMBL5385977, “Small molecules modulating RNA splicing: a review of targets and future perspectives” (RSC Med Chem, 2024).

In test [1] the target is Vascular endothelial growth factor receptor 2 (Homo sapiens, UniProt P35968). The experiment in a line: Inhibition of human VEGFR2 (unknown origin) incubated for 1 hrs in presence of ATP by ELISA assay. A general note: In an ELISA, binding on a coated surface is turned into a signal by an enzyme label.
Sequence of Vascular endothelial growth factor receptor 2 (P35968 whole entry): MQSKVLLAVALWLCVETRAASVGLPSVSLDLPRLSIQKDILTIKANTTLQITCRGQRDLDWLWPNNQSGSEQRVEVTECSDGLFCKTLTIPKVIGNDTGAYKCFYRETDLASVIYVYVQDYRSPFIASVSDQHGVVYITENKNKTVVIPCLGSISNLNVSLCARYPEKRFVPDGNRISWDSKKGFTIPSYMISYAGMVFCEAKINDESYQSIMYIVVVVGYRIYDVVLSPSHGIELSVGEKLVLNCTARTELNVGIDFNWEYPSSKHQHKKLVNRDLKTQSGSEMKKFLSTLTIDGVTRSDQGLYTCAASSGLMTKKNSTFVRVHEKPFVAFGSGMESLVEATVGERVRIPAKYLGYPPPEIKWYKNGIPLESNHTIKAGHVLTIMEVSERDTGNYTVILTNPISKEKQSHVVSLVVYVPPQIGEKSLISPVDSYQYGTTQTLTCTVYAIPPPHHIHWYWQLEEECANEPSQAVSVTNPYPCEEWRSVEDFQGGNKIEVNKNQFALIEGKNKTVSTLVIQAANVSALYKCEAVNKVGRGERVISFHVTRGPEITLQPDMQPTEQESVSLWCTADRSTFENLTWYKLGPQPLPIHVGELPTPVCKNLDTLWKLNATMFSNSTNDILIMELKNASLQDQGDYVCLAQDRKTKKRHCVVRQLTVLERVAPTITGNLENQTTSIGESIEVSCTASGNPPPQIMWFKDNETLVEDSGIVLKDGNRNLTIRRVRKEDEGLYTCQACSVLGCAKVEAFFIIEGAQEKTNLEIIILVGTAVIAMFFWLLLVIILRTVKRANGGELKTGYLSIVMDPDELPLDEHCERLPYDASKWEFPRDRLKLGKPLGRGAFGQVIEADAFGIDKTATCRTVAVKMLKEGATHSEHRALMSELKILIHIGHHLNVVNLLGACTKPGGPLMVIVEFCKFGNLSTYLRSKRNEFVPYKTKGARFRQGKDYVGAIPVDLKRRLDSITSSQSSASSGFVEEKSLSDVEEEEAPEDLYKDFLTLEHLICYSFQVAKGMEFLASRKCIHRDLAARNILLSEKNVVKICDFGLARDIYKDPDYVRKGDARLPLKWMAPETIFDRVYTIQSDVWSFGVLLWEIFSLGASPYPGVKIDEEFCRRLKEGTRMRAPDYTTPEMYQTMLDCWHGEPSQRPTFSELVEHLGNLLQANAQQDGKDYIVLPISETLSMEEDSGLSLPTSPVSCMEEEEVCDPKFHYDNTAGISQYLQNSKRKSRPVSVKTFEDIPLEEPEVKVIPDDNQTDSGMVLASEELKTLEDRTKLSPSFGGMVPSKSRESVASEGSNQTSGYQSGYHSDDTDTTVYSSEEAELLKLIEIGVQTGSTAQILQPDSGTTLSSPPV
A further test concerns the target T1, Splicing factor 45 (Homo sapiens, UniProt Q96I25).
T1 sequence (Q96I25 whole entry): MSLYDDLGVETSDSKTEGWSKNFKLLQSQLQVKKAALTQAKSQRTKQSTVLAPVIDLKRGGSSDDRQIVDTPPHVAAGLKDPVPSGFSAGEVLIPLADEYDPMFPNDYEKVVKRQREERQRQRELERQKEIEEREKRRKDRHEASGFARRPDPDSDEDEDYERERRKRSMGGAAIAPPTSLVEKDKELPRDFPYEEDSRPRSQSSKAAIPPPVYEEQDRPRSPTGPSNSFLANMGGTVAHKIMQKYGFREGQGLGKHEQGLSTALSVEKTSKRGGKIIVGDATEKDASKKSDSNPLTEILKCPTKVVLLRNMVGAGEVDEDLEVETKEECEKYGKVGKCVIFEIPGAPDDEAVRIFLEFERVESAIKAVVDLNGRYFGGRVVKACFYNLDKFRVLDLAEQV
The test is described as follows: Inhibition of His-tagged SPF45-UHM (unknown origin) (301 to 401 residues) expressed in Escherichia coli BL21 (DE3) cells by using biotinylated-RKSRWDETP as substrate preincubated for 30 mins followed by substrate addition and measured after 1 hr by AlphaScreen assay. On the technique in general: Alpha assays give light when donor and acceptor beads are brought close together.

The target of test [2] is Programmed cell death protein 1/Programmed cell death 1 ligand 1 (Homo sapiens, UniProt Q15116+Q9NZQ7). The test is described as follows: Inhibition of PD-1/PD-L1 interaction (unknown origin) incubated for 24 hrs by HTRF assay. Type of test: protein-complex assay.
Sequence of Programmed cell death protein 1/Programmed cell death 1 ligand 1 (Q15116 whole entry): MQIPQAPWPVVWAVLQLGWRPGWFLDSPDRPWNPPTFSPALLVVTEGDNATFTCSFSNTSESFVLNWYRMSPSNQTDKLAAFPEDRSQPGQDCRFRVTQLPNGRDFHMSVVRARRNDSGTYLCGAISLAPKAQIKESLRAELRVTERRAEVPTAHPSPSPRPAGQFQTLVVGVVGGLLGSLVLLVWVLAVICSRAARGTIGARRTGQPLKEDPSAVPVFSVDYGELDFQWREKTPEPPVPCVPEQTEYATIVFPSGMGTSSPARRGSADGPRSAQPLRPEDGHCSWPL
Sequence of Programmed cell death protein 1/Programmed cell death 1 ligand 1 (Q9NZQ7 whole entry): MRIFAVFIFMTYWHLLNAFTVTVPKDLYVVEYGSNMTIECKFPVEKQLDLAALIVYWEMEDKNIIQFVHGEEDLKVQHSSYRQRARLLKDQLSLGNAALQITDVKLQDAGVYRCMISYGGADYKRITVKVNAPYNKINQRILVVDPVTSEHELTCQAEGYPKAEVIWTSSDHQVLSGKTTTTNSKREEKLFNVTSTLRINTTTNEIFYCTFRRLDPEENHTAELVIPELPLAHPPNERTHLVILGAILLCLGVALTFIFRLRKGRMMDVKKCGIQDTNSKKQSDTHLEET
Test [3] is described as follows: Inhibition of N-terminal His-tagged U2AF35-UHM (unknown origin) expressed in Escherichia coli Rosetta cells (DE3) incubated for 1 hr by HTRF method. The arrangement: species or system Homo sapiens.

For `O=C(Nc1cc(C(F)(F)F)ccc1N1CCCCC1)c1ccncc1`, the IC50 in test [1] is 0.96 µM.
Regarding `COc1cc2c(cc1OC)N(CCCN1CCN(CCO)CC1)c1cc(Cl)ccc1S2`, the IC50 against Splicing factor 45 was determined as 10.4 µM; in test [2], 9.2 µM.
In test [3], `CC(CCc1c[nH]c2ccccc12)N1C[C@H]2CC[C@@H](C1)C2N` (some centres undefined) returned an IC50 of 74.9 µM.

What is called IC50 is the point on the concentration scale where inhibition reaches its midpoint.
